Source: patent publication US20230312605A1, “PYRROLO[2,1-F][1,2,4]TRIAZINES AND PREPARATION AND USES THEREOF” (BioSplice Therapeutics, Inc., priority 2021, published 2023)

Legend:
[1] = test system: Tau phosphorylation at Thr212 (pThr212) in HEK293T cells transfected with DYRK1A and MAPT; experiment: phosphoTau (Thr212) AlphaLISA tau phosphorylation cell assay; assay type: cell-based; settings: HEK-293T, HEK293T cells transiently transfected with human DYRK1A and MAPT, compound treatment 18-24 hours, read-out: pTau (Thr212) EC50
Protocol: Representative compounds were screened using the assay procedure for tau phosphorylation activity described below.
HEK293T cells (ATCC, CRL3216) cultured in DMEM (Thermo Fisher Scientific, 10566024) supplemented with 10% FBS (Corning, 35-011-CV) and Penicillin/Streptomycin (Thermo Fisher Scientific, 15140163) were seeded in a 75 cm^2 flask at 8.1 × 10^6 cells/flask. The HEK293T cells were then transiently transfected with 5 µg DYRK1A (NM_001396) human untagged clone (OriGene, SC314641) and 2.5 µg MAPT (441 a.a. Tau gene) (NM_005910) human untagged clone (OriGene, TP313312) using Lipofectamine 3000 (Thermo Fisher Scientific, L30000015) and incubated for 20-30 hours in a humidified incubator at 37° C. and 5% CO^2. Post-incubation, HEK293T cells transfected with the DYRK1A and MAPT expression vectors were harvested and seeded in BioCoat poly-D lysine coated 96-well plates (Corning, 354461) at 3 × 10^4 cells/well.
The above synthesized compounds were screened using the cell assay procedure to assess decreased Tau phosphorylation at Thr212 (pThr212) described below.
Each compound was dissolved in DMSO (Sigma-Aldrich, D8418-100 mL) as a 10 mM stock. 10 mM stocks were serially diluted 1:3, 10-point dose-response curve and added to the cells with a final concentration ranging from 20 µM to 1.1 nM. Cells were treated with compounds in duplicate and incubated for 18-24 hours in a humidified incubator at 37° C. and 5% CO^2.
Following the overnight compound treatment, cells were lysed with 1X Alpha Surefire Ultra Lysis Buffer (Perkin Elmer, ALSU-LB-100ML) complemented with 1X Halt Phosphatase Inhibitor Cocktail (Thermo Fisher Scientific, 78427) and 1X Halt Protease Inhibitor Cocktail (Thermo Fisher Scientific, 78438). Lysates were spun down at 12,000 g for 10 min to remove any cellular debris and 5 µL of lysates were dispensed into a 384-well Opti-Plate (Perkin Elmer, 6007290) for the measurement of Tau phosphorylation in the phosphoTau (Thr212) AlphaLISA assay. Donor antibody, biotinylated HT7Tau (Thermo Fisher Scientific, MN1000B), and acceptor antibody, pThr212Tau (Thermo Fisher Scientific, 44740G) were both added to the cell lysates at a final concentration of 3 nM and incubated for 1 hour at room temperature. Following incubation of the lysates with the donor and acceptor antibodies, anti-rabbit IgG(Fc specific) AlphaLISA acceptor beads (Perkin Elmer, AL104C) were added at a 10 ug/mL final concentration and incubated for 1 hour at room temperature protected from light. Lastly, AlphaScreen streptavidin donor beads (PerkinElmer, 6760002) were added at 40 ug/mL final concentration and incubated for 1 hour at room temperature protected from light. Plates were read at Ex= […], and Em=615 nm on the EnVision Multilabel Plate Reader (Perkin Elmer)
phospho-Tau (Thr212) AlphaLISA signal was used to plot, draw the curve fitting, and determine each compound’s EC50 in Prism (GraphPad).

[2] = molecular target: recombinant DYRK1A kinase (Homo sapiens (Human), UniProt Q13627); experiment: DYRK1A kinase assay (Ser/Thr 18 peptide Z-lyte FRET assay); assay type: biochemical; settings: recombinant DYRK1A 0.25 µg/mL, ATP 15 µM, Ser/Thr peptide 18 4 µM, one hour at room temperature; table head prints EC50, method says IC50
Outline: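 Recombinant human DYRK1A (0.25 µg/mL) with 15 µM ATP and 4 µM Ser/Thr 18 peptide was incubated 1 h at room temperature with compound (11-point, 10 µM top), in duplicate. Z-lyte FRET read-out (coumarin/fluorescein emission ratio) was converted to percent phosphorylation; IC50 from non-linear regression.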

| SMILES | EC50 [2] [nM] | EC50 [1] [nM] |
| --- | --- | --- |
| Cc1nc2ccc(-c3ccn4nc(NC5CCC(F)(F)CC5)ncc34)nc2n1CCF [Compound 1037, N-(4,4-Difluorocyclohexyl)-5-(3-(2-fluoroethyl)-2-methyl-3H-imidazo[4,5-b]pyridin-5-yl)pyrrolo[2,1-f][1,2,4]triazin-2-amine] | 20 | 403 |
| COCCn1c(C)nc2ccc(-c3ccn4nc(NC5CCC(F)(F)CC5)ncc34)nc21 [Compound 1179, N-(4,4-Difluorocyclohexyl)-5-(3-(2-methoxyethyl)-2-methyl-3H-imidazo [4,5-b]pyridin-5-yl)pyrrolo[2,1-f][1,2,4]triazin-2-amine] | 26 | 470 |
| N[C@H]1CC[C@@H](Nc2ncc3c(-c4ccc5ncccc5c4)ccn3n2)CC1 [Compound 1332, cis-N^1-(5-(Quinolin-6-yl)pyrrolo[2,1-f][1,2,4]triazin-2-yl)cyclohexane-1,4-diamine] | 20 | 524 |
| O[C@H]1CC[C@@H](Nc2ncc3c(-c4ccc5nccnc5c4)ccn3n2)CC1 [Compound 1393, cis-4-((5-(Quinoxalin-6-yl)pyrrolo[2,1-f][1,2,4]triazin-2-yl)amino) cyclohexan-1-ol] | 23 | 718 |
| C[C@]1(O)CC[C@@H](Nc2ncc3c(-c4ccc5nccnc5c4)ccn3n2)CC1 [Compound 1394, (1s,4s)-1-Methyl-4-((5-(quinoxalin-6-yl)pyrrolo[2,1-f][1,2,4]triazin-2-yl)amino)cyclohexan-1-ol] | 14 | 709 |
| CO[C@H]1CC[C@@H](Nc2ncc3c(-c4ccc5nccnc5c4)ccn3n2)CC1 [Compound 1395, N-(cis-4-Methoxycyclohexyl)-5-(quinoxalin-6-yl)pyrrolo[2,1-f][1,2,4] triazin-2-amine] | 11 | 380 |
| c1cnc2cc(-c3ccn4nc(NC5CC6(COC6)C5)ncc34)ccc2n1 [Compound 1418, 5-(Quinoxalin-6-yl)-N-(2-oxaspiro[3.3]heptan-6-yl)pyrrolo[2,1-f][1,2,4] triazin-2-amine] | 11 | 212 |
| O[C@H]1C[C@@H](Nc2ncc3c(-c4ccc5nccnc5c4)ccn3n2)C1 [Compound 1724, cis-3-((5-(Quinoxalin-6-yl)pyrrolo [2,1-f] [1,2,4]triazin-2-yl)amino) cyclobutan-1-ol] | 11 | 305 |

The next lines start with results.

| EC50 [2] [nM] | SMILES | EC50 [1] [nM] |
| --- | --- | --- |
| 11 | Cc1nc2ncc(-c3ccn4nc(NCC(C)(C)F)ncc34)cc2n1C1CCOCC1 [Compound 784, N-(2-Fluoro-2-methylpropyl)-5-(2-methyl-1-(tetrahydro-2H-pyran-4-yl)-1H-imidazo[4,5-b]pyridin-6-yl)pyrrolo[2,1-f] [1,2,4]triazin-2-amine] | 516 |
| 4 | Cc1nc2ccc(-c3ccn4nc(NCC(C)(C)F)ncc34)nc2n1CC(F)F [Compound 1068, N-(2-Fluoro-2-methylpropyl)-5-(3-(2,2-difluoroethyl)-2-methyl-3H-imidazo[4,5-b]pyridin-5-yl)pyrrolo[2,1-f][1,2,4]triazin-2-amine] | 159 |
| 8 | Cc1nc2ccc(-c3ccn4nc(NC5CCC(F)(F)CC5)ncc34)nc2n1CC(F)F [Compound 1108, N-(4,4-Difluorocyclohexyl)-5-(3-(2,2-difluoroethyl)-2-methyl-3H-imidazo [4,5-b]pyridin-5-yl)pyrrolo[2,1-f][1,2,4]triazin-2-amine] | 126 |
| 3 | CO[C@H]1CC[C@@H](Nc2ncc3c(-c4ccc5nc(C)n(CC(F)F)c5n4)ccn3n2)CC1 [Compound 1111, 5-(3-(2,2-Difluoroethyl)-2-methyl-3H-imidazo[4,5-b]pyridin-5-yl)-N-(cis-4-methoxycyclohexyl)pyrrolo[2,1-f][1,2,4]triazin-2-amine] | 71 |
| 5 | Cc1nc2ccc(-c3ccn4nc(NCC(C)(C)F)ncc34)nc2n1C(C)C [Compound 1801, N-(2-Fluoro-2-methylpropyl)-5-(3-isopropyl-2-methyl-3H-imidazo[4,5-b]pyridin-5-yl)pyrrolo [2,1-f][1,2,4]triazin-2-amine] | 152 |
